{"source": "patent US6706880B2", "about": "(Research Triangle Institute, priority 1990, dated 2004)", "key": {"[1]": {"molecular_target": "T1, serotonin transporter (Rattus norvegicus, UniProt P31652)", "T1 construct": "from tissue", "T1 sequence (P31652 whole entry)": "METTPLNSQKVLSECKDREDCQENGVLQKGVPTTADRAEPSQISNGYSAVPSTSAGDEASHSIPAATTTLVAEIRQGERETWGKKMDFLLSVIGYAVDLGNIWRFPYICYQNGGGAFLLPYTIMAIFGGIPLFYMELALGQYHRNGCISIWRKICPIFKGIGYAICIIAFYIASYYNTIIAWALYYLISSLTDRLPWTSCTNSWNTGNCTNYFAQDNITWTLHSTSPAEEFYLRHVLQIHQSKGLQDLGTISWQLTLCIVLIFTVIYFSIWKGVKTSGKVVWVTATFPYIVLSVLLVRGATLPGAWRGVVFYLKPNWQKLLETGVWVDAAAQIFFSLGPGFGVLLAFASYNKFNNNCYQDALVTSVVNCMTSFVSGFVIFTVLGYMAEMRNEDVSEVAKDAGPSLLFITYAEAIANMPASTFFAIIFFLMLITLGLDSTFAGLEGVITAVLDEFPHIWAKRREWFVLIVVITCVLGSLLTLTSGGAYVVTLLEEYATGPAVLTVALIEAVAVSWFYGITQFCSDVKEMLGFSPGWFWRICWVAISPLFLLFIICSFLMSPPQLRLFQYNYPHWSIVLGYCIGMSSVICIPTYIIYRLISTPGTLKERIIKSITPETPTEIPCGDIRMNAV", "test": "Inhibition of [3H]paroxetine radioligand binding at the serotonin transporter", "from_the_text": "(§1) Illustrative in vitro assays for binding are described in Boja et al Ann. NY Acad. Sci. 654:282-291 (1992), which is incorporated herein by reference in its entirety. […] Alternatively, the compounds may be analyzed by their ability to inhibit reuptake of a labelled neurotransmitter in a sample, in particular, in synaptosomes."}, "[2]": {"test_system": "dopamine transporter", "type": "binding", "conditions": "ratio of IC50 values, Table II", "from_the_text": "as §1"}, "[3]": {"molecular_target": "dopamine transporter (UniProt P23977)", "type": "binding", "from_the_text": "as §1"}, "[4]": {"molecular_target": "norepinephrine transporter (UniProt Q9WTR4)", "test": "Inhibition of [3H]nisoxetine radioligand binding at the norepinephrine transporter", "from_the_text": "as §1"}, "[5]": {"conditions": "5-HT IC50 for inhibition of radioligand binding, 5-HT=[3H] paroxetine"}, "[6]": {"conditions": "IC50 5-HT [3H]-paroxatine, Table II"}, "[7]": {"conditions": "read-out: DA IC50 for inhibition of radioligand binding, DA=[3H]WIN 35,428"}, "[8]": {"conditions": "read-out: IC50 DA [3H]-WIN 35,428, Table II"}, "[9]": {"conditions": "read-out: IC50 NE [3H]-nisoxetine, Table II"}, "[10]": {"conditions": "read-out: NEN IC50 for inhibition of radioligand binding, NEN=[3H] nisoxetine"}, "[11]": {"conditions": "5-HT=[3H] paroxetine, read-out: 5-HT IC50 for inhibition of radioligand binding"}}, "note": "Structures can show the parent of a compound that is named as a salt. Where two headings read alike, the source gives them in different places.", "data": [{"smiles": "CN1[C@H]2CC[C@@H]1[C@@H](c1cc(-c3ccccc3)no1)[C@@H](c1ccc(Cl)cc1)C2", "note": "[RTI-4229-177, 3β-(4-Chlorophenyl)-2β-(3-phenylisoxazol-5-yl)tropane Hydrochloride]", "values": [{"measurement": "IC50", "setting": "[1]; [5]", "result": 2420, "unit": "nM"}, {"measurement": "IC50", "setting": "[1]; [6]", "result": "2420 ± 136", "unit": "nM"}, {"measurement": "5-HT/DA Ratio", "setting": "[2]", "result": 1889}, {"measurement": "NE/DA Ratio", "setting": "[2]", "result": 393}, {"measurement": "IC50", "setting": "[3]; [7]", "result": 1.28, "unit": "nM"}, {"measurement": "IC50", "setting": "[3]; [8]", "result": "1.28 ± 0.18", "unit": "nM"}, {"measurement": "IC50", "setting": "[4]; [9]", "result": "504 ± 29", "unit": "nM"}, {"measurement": "IC50", "setting": "[4]; [10]", "result": 504, "unit": "nM"}]}, {"smiles": "Cc1ccc([C@H]2C[C@@H]3CC[C@H]([C@H]2c2ncc(-c4ccccc4)o2)N3C)cc1", "note": "[RTI-4229-178, 3β-(4-Methylphenyl)-2β-(5-phenyl-oxazol-2-yl)-tropane Tartrate]", "values": [{"measurement": "IC50", "setting": "[1]; [5]", "result": 1700, "unit": "nM"}, {"measurement": "IC50", "setting": "[1]; [6]", "result": 1700, "unit": "nM"}, {"measurement": "5-HT/DA Ratio", "setting": "[2]", "result": 48}, {"measurement": "NE/DA Ratio", "setting": "[2]", "result": 19}, {"measurement": "IC50", "setting": "[3]; [7]", "result": 35.4, "unit": "nM"}, {"measurement": "IC50", "setting": "[3]; [8]", "result": 35.4, "unit": "nM"}, {"measurement": "IC50", "setting": "[4]; [9]", "result": 677, "unit": "nM"}, {"measurement": "IC50", "setting": "[4]; [10]", "result": 677, "unit": "nM"}]}, {"smiles": "Cc1cc([C@H]2[C@@H](c3ccc(I)cc3)C[C@@H]3CC[C@H]2N3C)on1", "note": "[RTI-4229-180, 3β-(4-Iodophenyl)-2β-(3-methylisoxazol-5-yl)tropane Hydrochloride]", "values": [{"measurement": "IC50", "setting": "[1]; [6]", "result": 36.4, "unit": "nM"}, {"measurement": "NE/DA Ratio", "setting": "[2]", "result": 93}, {"measurement": "IC50", "setting": "[3]; [8]", "result": 0.73, "unit": "nM"}, {"measurement": "IC50", "setting": "[4]; [9]", "result": 67.9, "unit": "nM"}, {"measurement": "IC50", "setting": "[4]; [10]", "result": 67.9, "unit": "nM"}]}, {"smiles": "CN1[C@H]2CC[C@@H]1[C@@H](c1cc(-c3ccccc3)no1)[C@@H](c1ccc(I)cc1)C2", "note": "[RTI-4229-181, 3β-(4-Iodophenyl)-2β-(3-phenylisoxazol-5-yl)tropane Hydrochloride]", "values": [{"measurement": "IC50", "setting": "[1]; [5]", "result": 100, "unit": "nM"}, {"measurement": "IC50", "setting": "[1]; [6]", "result": 100, "unit": "nM"}, {"measurement": "5-HT/DA Ratio", "setting": "[2]", "result": 39}, {"measurement": "NE/DA Ratio", "setting": "[2]", "result": 337}, {"measurement": "IC50", "setting": "[3]; [7]", "result": 2.57, "unit": "nM"}, {"measurement": "IC50", "setting": "[3]; [8]", "result": 2.57, "unit": "nM"}, {"measurement": "IC50", "setting": "[4]; [9]", "result": 868, "unit": "nM"}, {"measurement": "IC50", "setting": "[4]; [10]", "result": 868, "unit": "nM"}]}, {"smiles": "CN1[C@H]2CC[C@@H]1[C@@H](c1nnc(-c3ccccc3)o1)[C@@H](c1ccc(Cl)cc1)C2", "note": "[RTI-4229-188, 3β-(4-Chlorophenyl)-2β-(5-phenyl-1,3,4-oxadiazol-2-yl)-tropane Hydrochloride]", "values": [{"measurement": "IC50", "setting": "[1]; [11]", "result": 3300, "unit": "nM"}, {"measurement": "IC50", "setting": "[1]; [6]", "result": "3300 ± 196", "unit": "nM"}, {"measurement": "5-HT/DA Ratio", "setting": "[2]", "result": 262}, {"measurement": "NE/DA Ratio", "setting": "[2]", "result": 73}, {"measurement": "IC50", "setting": "[3]; [7]", "result": 12.6, "unit": "nM"}, {"measurement": "IC50", "setting": "[3]; [8]", "result": "12.6 ± 1.03", "unit": "nM"}, {"measurement": "IC50", "setting": "[4]; [9]", "result": "929 ± 88", "unit": "nM"}, {"measurement": "IC50", "setting": "[4]; [10]", "result": 929, "unit": "nM"}]}, {"smiles": "CN1[C@H]2CC[C@@H]1[C@@H](c1ncc(-c3ccccc3)o1)[C@@H](c1ccc(Cl)cc1)C2", "note": "[RTI-4229-189, 3β-(4-Chlorophenyl)-2β-(5-phenyl-oxazol-2-yl)-tropane Tartrate]", "values": [{"measurement": "IC50", "setting": "[1]; [11]", "result": 1120, "unit": "nM"}, {"measurement": "IC50", "setting": "[1]; Table II, read-out: IC50 5-HT [3H]-paroxatine (converted)", "result": "1120 ± 107", "unit": "nM"}, {"measurement": "5-HT/DA Ratio", "setting": "[2]", "result": 57}, {"measurement": "NE/DA Ratio", "setting": "[2]", "result": 25}, {"measurement": "IC50", "setting": "[3]; [7]", "result": 19.7, "unit": "nM"}, {"measurement": "IC50", "setting": "[3]; [8]", "result": "19.7 ± 1.98", "unit": "nM"}, {"measurement": "IC50", "setting": "[4]; [9]", "result": "496 ± 42", "unit": "nM"}, {"measurement": "IC50", "setting": "[4]; [10]", "result": 496, "unit": "nM"}]}, {"smiles": "Cc1ccc([C@H]2C[C@@H]3CC[C@H]([C@H]2c2nnc(C)o2)N3C)cc1", "note": "[RTI-4229-194, 3β-(4-Methylphenyl)-2β-(5-methyl-1,3,4-oxadiazol-2-yl)-tropane Hydrochloride]", "values": [{"measurement": "IC50", "setting": "[1]; [5]", "result": 4880, "unit": "nM"}, {"measurement": "IC50", "setting": "[1]; [6]", "result": "4880 ± 155", "unit": "nM"}, {"measurement": "5-HT/DA Ratio", "setting": "[2]", "result": 1098}, {"measurement": "NE/DA Ratio", "setting": "[2]", "result": 57}, {"measurement": "IC50", "setting": "[3]; [7]", "result": 4.45, "unit": "nM"}, {"measurement": "IC50", "setting": "[3]; [8]", "result": "4.45 ± 0.12", "unit": "nM"}, {"measurement": "IC50", "setting": "[4]; [9]", "result": "253 ± 19", "unit": "nM"}, {"measurement": "IC50", "setting": "[4]; [10]", "result": 253, "unit": "nM"}]}, {"smiles": "Cc1ccc([C@H]2C[C@@H]3CC[C@H]([C@H]2c2nnc(-c4ccccc4)o2)N3C)cc1", "note": "[RTI-4229-195, 3β-(4-Methylphenyl)-2β-(5-phenyl-1,3,4-oxadiazol-2-yl)-tropane Hydrochloride]", "values": [{"measurement": "IC50", "setting": "[1]; [5]", "result": 22300, "unit": "nM"}, {"measurement": "IC50", "setting": "[1]; [6]", "result": 23300, "unit": "nM"}, {"measurement": "5-HT/DA Ratio", "setting": "[2]", "result": 491}, {"measurement": "NE/DA Ratio", "setting": "[2]", "result": 28}, {"measurement": "IC50", "setting": "[3]; [7]", "result": 47.5, "unit": "nM"}, {"measurement": "IC50", "setting": "[3]; [8]", "result": 47.5, "unit": "nM"}, {"measurement": "IC50", "setting": "[4]; [9]", "result": 1310, "unit": "nM"}, {"measurement": "IC50", "setting": "[4]; [10]", "result": 1310, "unit": "nM"}]}, {"smiles": "Cc1ccc([C@H]2C[C@@H]3CC[C@H]([C@H]2c2nnc(-c4ccccc4)s2)N3C)cc1", "note": "[RTI-4229-199, 3β-(4-Methylphenyl)-2β-(5-phenyl-1,3,4-thiadiazol-2-yl)-tropane Hydrochloride]", "values": [{"measurement": "IC50", "setting": "[1]; [5]", "result": 51500, "unit": "nM"}, {"measurement": "IC50", "setting": "[1]; [6]", "result": 51500, "unit": "nM"}, {"measurement": "5-HT/DA Ratio", "setting": "[2]", "result": 1434}, {"measurement": "NE/DA Ratio", "setting": "[2]", "result": 677}, {"measurement": "IC50", "setting": "[3]; [7]", "result": 35.9, "unit": "nM"}, {"measurement": "IC50", "setting": "[3]; [8]", "result": 35.9, "unit": "nM"}, {"measurement": "IC50", "setting": "[4]; [9]", "result": 24300, "unit": "nM"}]}]}
